Assay results published in patent US12522623B2, “Small molecule STAT protein degraders” (THE REGENTS OF THE UNIVERSITY OF MICHIGAN, priority 2020, dated 2026).

Legend:
Assay type in all cases: cell-based
STAT1 = biological target: T1, STAT1 (Homo sapiens, UniProt P42224); experiment: Fluorescent immunoblotting of STAT1 protein in MOLM-16 cells (estimated DC50); details: MOLM-16, 4 h
T1 construct: endogenous in cells; host or cells: MOLM-16 (acute leukemia cells)
T1 sequence (P42224 1-750): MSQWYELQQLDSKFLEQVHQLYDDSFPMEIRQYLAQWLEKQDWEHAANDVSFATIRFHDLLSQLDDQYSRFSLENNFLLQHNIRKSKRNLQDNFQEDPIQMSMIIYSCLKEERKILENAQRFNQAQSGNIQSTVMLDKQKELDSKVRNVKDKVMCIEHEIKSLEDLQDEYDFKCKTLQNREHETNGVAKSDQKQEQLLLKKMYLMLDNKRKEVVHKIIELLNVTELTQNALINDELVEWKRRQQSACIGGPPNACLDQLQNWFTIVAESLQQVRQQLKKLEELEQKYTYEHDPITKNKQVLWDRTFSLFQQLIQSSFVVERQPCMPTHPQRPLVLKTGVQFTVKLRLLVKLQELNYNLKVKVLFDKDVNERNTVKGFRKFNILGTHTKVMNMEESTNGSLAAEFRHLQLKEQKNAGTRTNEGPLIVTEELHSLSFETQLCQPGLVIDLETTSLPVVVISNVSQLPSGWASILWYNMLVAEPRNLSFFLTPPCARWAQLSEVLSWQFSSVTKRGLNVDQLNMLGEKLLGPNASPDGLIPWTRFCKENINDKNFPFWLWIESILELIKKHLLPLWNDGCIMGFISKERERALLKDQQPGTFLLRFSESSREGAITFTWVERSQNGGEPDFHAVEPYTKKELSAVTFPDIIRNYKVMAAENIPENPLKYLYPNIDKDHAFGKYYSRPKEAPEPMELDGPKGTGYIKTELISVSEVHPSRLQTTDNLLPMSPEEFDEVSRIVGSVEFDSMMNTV
Description: (§1) In vitro cultured cells or xenograft tumors were lysed 1×Cell Lysis Buffer (Cell Signaling Technology, #9803), resolved by SDS-PAGE NuPAGE gel (Thermo Fisher Scientific), and transferred to a PVDF membrane (Bio Rad). For chemiluminescence immunoblotting, membranes were blocked for 1 h using 5% Blotting-Grade Blocker (#1706404, Bio Rad) in 1×Tris-buffered saline with Tween 20 (TBST, Pierce). Antibodies used were: rabbit mAbs for STAT3 (Cell Signaling Technology, #4368, #12640) and p-STAT3 (Y705) (Cell Signaling Technology, #9245, #52075). HRP conjugated goat anti-rabbit IgG (H+L) (#A27036) secondary antibodies was from Thermo Fisher Scientific. GAPDH (Santa Cruz Technology, sc-47724HRP) and actin (Santa Cruz Technology, sc-8432HRP, sc-47778HRP) were loading controls. For fluorescent immunoblotting, membranes were blocked using Odyssey TBS Blocker Buffer (LI-COR). IRDye 680RD and 800CW Dye-labeled secondary antibodies (LI-COR) were used. The washed membranes were scanned using Odyssey CLx imager (LI-COR). The intensity of Western blot signaling was quantitated using the Odyssey software or Image Studio V5.2 (LI-COR).

MOLM-16 cells = experiment: Cell growth inhibition, 4-day proliferation assay (CellTiter-Glo); details: MOLM16, 96 h; MOLM-16, 4 days
Description: The effect of representative Compounds of the Disclosure on cell viability was determined in a 4-day proliferation assay. Cells were maintained in the appropriate culture medium at 37° C. and an atmosphere of 5% CO2. All the cell lines were used within three months of thawing fresh vials. Cells were seeded in 384-well white plates (Corning Costar) at a density of 2,000 cells/well in 25 μl of culture medium. Compounds were serially diluted in the appropriate medium, and 25 μl of the diluted compounds were added to the cells. After the addition of compounds, the cells were incubated at 37° C. in an atmosphere of 5% CO2 for 4 days. Cell viability was determined using the CellTiter-Glo® Luminescent Cell Viability Assay Kit (Promega, Madison, WI) according to the manufacturers' instructions. Essentially, 50 μl of CellTiter-Glo® Reagent was added to each well, and then the plates were incubated at room temperature for 20 minutes. The luminescent signal was measured using a Tecan multimode microplate reader (Tecan, Morrisville, NC). The readings were normalized to the DMSO-treated cells and the IC50 was calculated by nonlinear regression (four parameters sigmoid fitted with variable slope, least squares fit, and no constraint) analysis using the GraphPad Prism software.

STAT3 = biological target: T2, STAT3 (Homo sapiens, UniProt P40763); experiment: Fluorescent immunoblotting of STAT3 protein in MOLM-16 cells (estimated DC50); details: MOLM-16, 4 h
T2 construct: endogenous in cells; host or cells: MOLM-16 (acute leukemia cells)
T2 sequence (P40763 whole entry): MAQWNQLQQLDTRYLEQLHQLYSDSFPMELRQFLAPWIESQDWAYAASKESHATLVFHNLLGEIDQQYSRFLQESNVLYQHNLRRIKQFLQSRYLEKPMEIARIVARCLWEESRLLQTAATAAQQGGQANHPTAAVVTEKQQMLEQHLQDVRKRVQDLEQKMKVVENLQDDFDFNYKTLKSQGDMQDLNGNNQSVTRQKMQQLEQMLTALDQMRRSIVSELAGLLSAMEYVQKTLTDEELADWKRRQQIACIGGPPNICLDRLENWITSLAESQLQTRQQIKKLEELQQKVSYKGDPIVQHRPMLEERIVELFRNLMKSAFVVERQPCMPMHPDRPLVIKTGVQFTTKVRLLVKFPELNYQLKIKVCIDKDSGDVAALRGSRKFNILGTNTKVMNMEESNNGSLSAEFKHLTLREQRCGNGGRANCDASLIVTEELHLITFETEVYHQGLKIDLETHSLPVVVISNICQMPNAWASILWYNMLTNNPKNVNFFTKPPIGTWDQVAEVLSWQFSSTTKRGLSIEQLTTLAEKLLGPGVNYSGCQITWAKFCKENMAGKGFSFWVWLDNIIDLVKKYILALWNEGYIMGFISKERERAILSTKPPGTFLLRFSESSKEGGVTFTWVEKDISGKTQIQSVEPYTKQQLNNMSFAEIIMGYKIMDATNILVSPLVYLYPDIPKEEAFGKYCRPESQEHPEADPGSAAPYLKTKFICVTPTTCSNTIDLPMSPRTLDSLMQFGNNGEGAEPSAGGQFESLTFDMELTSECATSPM
Description: as §1

Structure (SMILES)	DC50 (STAT1)	IC50 (MOLM-16 cells)	DC50 (STAT3)
NC(=O)CC[C@H](NC(=O)[C@@H]1CC[C@@H]2CCN(C(=O)CCCCCC#Cc3cccc4c3CN(C3CCC(=O)NC3=O)C4=O)C[C@H](NC(=O)c3cc4cc(C(F)(F)P(=O)(O)O)ccc4s3)C(=O)N21)c1ncc(-c2ccccc2)s1 (stereo partly drawn) [Cpd. No. 2, ((2-(((5S,8S,10aR)-8-(((S)-4-amino-4-oxo-1-(5-phenylthiazol-2-yl)butyl)carbamoyl)-3-(8-(2-(2,6-dioxopiperidin-3-yl)-1-oxoisoindolin-4-yl)oct-7-ynoyl)-6-oxodecahydropyrrolo[1,2-a][1,5]diazocin-5-yl)carbamoyl)benzo[b]thiophen-5-yl)difluoromethyl)phosphonic acid]	> 1000 nM	49 nM	100 nM
COC(=O)N1CC[C@H]2CC[C@@H](C(=O)N[C@@H](CCCN)C(=O)N[C@@H](Cc3ccc(C(C)(C)C)cc3)C(=O)N3CCC(CCC#Cc4cccc5c4CN(C4CCC(=O)NC4=O)C5=O)CC3)N2C(=O)[C@@H](NC(=O)c2cc3cc(C(F)(F)P(=O)(O)O)ccc3s2)C1 (stereo partly drawn) [Cpd. No. 1, ((2-(((5S,8S,10aR)-8-(((2S)-5-amino-1-(((2S)-3-(4-(tert-butyl)phenyl)-1-(4-(4-(2-(2,6-dioxopiperidin-3-yl)-1-oxoisoindolin-4-yl)but-3-yn-1-yl)piperidin-1-yl)-1-oxopropan-2-yl)amino)-1-oxopentan-2-yl)carbamoyl)-3-(methoxycarbonyl)-6-oxodecahydropyrrolo[1,2-a][1,5]diazocin-5-yl)carbamoyl)benzo[b]thiophen-5-yl)difluoromethyl)phosphonic acid]	> 1000 nM	–	1000 nM
